These results are taken from article PMC2832307 (Journal of medicinal chemistry, 2009).

“Also recorded” adds a separate entry of the source. Like-named read-outs stand apart in the source and are kept apart here.

In data set [1] the test system is hair cells of mouse organ of Corti explants. Put plainly: Ototoxicity: hair cell loss in cochlear explants. The settings on record: 0.2 mM, basal part. It is filed as cell-based.
The nature of data set [2]: Acute intravenous toxicity. The arrangement: species or system mice. The settings on record: male, BALB/C, mouse, in vivo.
The subject of data set [3] is nonsense mutation constructs (p2luc, R3381X, R3X, R245X, G542X, W1282X, Q70X, W402X). Briefly: In vitro dual luciferase readthrough assay. The format is biochemical. The settings on record: for reduction in overall translation: highest concentration, Renilla luciferase activity ratio, all eight constructs.
Data set [4] deals with PCDH15-R3X nonsense mutation. Put plainly: Ex vivo dual luciferase readthrough assay in COS-7 cells. The format is cell-based, monkey.
In a further data set the test system is mice. The settings on record: cited from earlier work.
For data set [5], the system named is human CFTR-G542X nonsense mutation. The conditions noted are these: clinical doses, transgenic CF mouse; cited from earlier work.
Another data set relates to premature stop codons. The settings on record: cited from earlier work.
Data set [6] concerns human cytoplasmic A site sequence. The conditions noted are these: cited from earlier work.

As to `CNC(C)C1CCC(N)C(OC2C(N)CC(N)C(OC3OCC(C)(O)C(NC)C3O)C2O)O1` (stereo not shown) [Gentamicin, gentamicin], the “hair cell loss in cochlear explants” value in data set [1] is “hair cell loss was almost complete; also recorded: cell loss is almost complete”. Moreover, in data set [2], the LD50 (commonly the dose at which mortality reaches 50%) at 4 days was 60 mg/kg. Moreover, the “reduction in overall translation” value in data set [3] is “approximately 50%”. Also, in data set [4] (COS-7 cells), the maximal suppression level is 1.86%.

`NCCC(O)C(=O)NC1CC(N)C(OC2OC(CN)C(O)C(O)C2N)C(O)C1O` (stereo not shown) [N-1-AHB-neamine]: in the data set on mice (acute lethal toxicity), the LD50 is 260 mg/kg.

Regarding `NC[C@@H]1O[C@H](O[C@H]2[C@@H](O)[C@H](O[C@@H]3[C@@H](O)[C@H](N)C[C@H](N)[C@H]3O[C@H]3O[C@H](CO)[C@@H](O)[C@H](O)[C@H]3N)O[C@@H]2CO)[C@H](N)[C@@H](O)[C@@H]1O` [Paromomycin, paromomycin], the “reduction in overall translation” value in data set [3] is “approximately 40%”.

In the case of `NCC[C@H](O)C(=O)N[C@@H]1C[C@H](N)[C@@H](O[C@H]2O[C@H](CN)[C@@H](O)[C@H](O)[C@H]2O)[C@H](O)[C@H]1O[C@H]1O[C@H](CO)[C@@H](O)[C@H](N)[C@H]1O` [amikacin], the “suppression of CFTR-G542X nonsense mutation” value in data set [5] is given as “highly effective suppression”. In the data set on premature stop codons, the “readthrough potency, fold lower than gentamicin” value is reported as “over 10 fold”. Further, the LD50 with mice (acute intravenous toxicity in mice) is 300 mg/kg.

In the case of `NCC[C@H](O)C(=O)N[C@@H]1C[C@H](N)[C@@H](O[C@H]2O[C@H](CN)CC[C@H]2N)[C@H](O)[C@H]1O[C@H]1O[C@H](CO)[C@@H](O)[C@H](N)[C@H]1O` [arbekacin], in the data set on mice (acute lethal toxicity), the 50% lethal dose (LD50) is on record as 118 mg/kg.

As to `NC[C@H]1O[C@@H](O[C@@H]2[C@@H](O)[C@H](N)C[C@H](N)[C@H]2O[C@H]2O[C@H](CO)[C@@H](O)[C@H](O)[C@H]2N)[C@H](O)[C@@H]1O` [compound 1], in data set [6], the “fold weaker affinity than paromomycin” value is recorded as “about 100 fold”.

In the case of `NCC[C@H](O)C(=O)N[C@@H]1C[C@H](N)[C@@H](O[C@H]2O[C@H](CO)[C@@H](O)[C@H](O)[C@H]2N)[C@H](O[C@@H]2O[C@H](CN)[C@@H](O)[C@H]2O)[C@H]1O` [compound 2, 5-O-(5-Amino-5-deoxy-β-D-ribofuranosyl)-1-N-[(S)-4-amino-2-hydroxy-butanoyl]paromamine], the “reduction in overall translation” value in data set [3] is “approximately 50%”. The “level of readthrough (rank among four aminoglycosides)” value in data set [3] (in vitro, eight constructs) was “induced the highest level of readthrough”. In addition, in data set [4] (COS-7, vs compound 1), the “fold more effective (maximal suppression) than compound 1” value amounted to 1.9 fold. In addition, in data set [4] (COS-7, vs gentamicin), the “fold more effective (maximal suppression) than gentamicin” value is 2.8 fold. In data set [4] (COS-7, vs paromomycin), the “fold more effective (maximal suppression) than paromomycin” value stood at 3.2 fold.

With `NC[C@@H]1CC[C@@H](N)[C@@H](O[C@H]2[C@H](O)[C@@H](O[C@H]3O[C@H](CO)[C@@H](O)[C@H](N)[C@H]3O)[C@H](N)C[C@@H]2N)O1` [dibekacin], in the data set on mice (acute lethal toxicity), the LD50 is 71 mg/kg.

In the case of `NC[C@H]1O[C@H](O[C@H]2[C@H](O)[C@@H](O)[C@H](N)C[C@@H]2N)[C@H](N)[C@@H](O)[C@@H]1O` [neamine], the LD50 with mice (acute lethal toxicity) was 125 mg/kg.

As to `NC[C@H]1O[C@H](O[C@H]2[C@H](O[C@@H]3O[C@H](CO)[C@@H](O)[C@H]3O)[C@@H](O)[C@H](N)C[C@@H]2N)[C@H](N)[C@@H](O)[C@@H]1O` [ribostamycin], the 50% lethal dose (LD50) with mice (acute lethal toxicity) was 260 mg/kg.

Turning to `NC[C@H]1O[C@H](O[C@H]2[C@H](O)[C@@H](O[C@H]3O[C@H](CO)[C@@H](O)[C@H](N)[C@H]3O)[C@H](N)C[C@@H]2N)[C@H](N)C[C@@H]1O` [tobramycin], in the data set on premature stop codons, the suppression activity result is listed as “does not have suppression activity”.

Take butirosin: in the data set with mice (acute lethal toxicity), the LD50 is 520 mg/kg.

For the molecule kanamycin A, the readthrough activity result with premature stop codons is recorded as “does not show measurable readthrough activity”.
